Test results from US20020052409A1, “Compounds and methods for treating mitochondria-associated diseases” (priority 1998, published 2002).
pIC50: −log10 of the molar value.

Key:
1685 cells [1] = experiment: Thapsigargin induced apoptosis (cell death, propidium iodide); assay type: cell-based, human; details: for cytotoxicity at 100 µM: Homo sapiens, read-out: % Non-Viable Cells with Thapsigargin and with Cmpd.; for cytotoxicity at 100 µM / % Non-Viable Cells with Thapsigargin and with Cmpd.: thapsigargin 1 μM plus agent 100 μM, 24 hours; for Δ Cell Viability: [% Non-Viable Cells (with Thapsigargin, without Cmpd)] − [% Non-Viable Cells (with Thapsigargin, with Cmpd)], agent 100 μM
Method: In another aspect of the apoptosis assays, the ratio of living to dead cells, or the proportion of dead cells, in a population of cells exposed to an apoptogen is determined as a measure of the ultimate consequence of apoptosis. Living cells can be distinguished from dead cells using any of a number of techniques known to those skilled in the art.
In order to determine the effect of compounds of this invention on the final endpoint of apoptosis (cell death), the following assays were carried out. […] Cells were plated (3×10^4 cells per well) on 96-well plates 48 hours prior to thapsigargin treatment. Thapsigargin (Calbiochem, La Jolla, Calif.) alone (final concentration, 1 μM), thapsigargin (1 μM) plus agent final concentration, 100 μM), agent alone (100 μM) in growth media, or growth media devoid of both thapsigargin and agent, were added to cells in four separate wells.
Twenty-four hours after thapsigargin +/− agent treatment, propidium iodide (Sigma Chemical Co., St. Louis, Mo.) was added to each well at a final concentration of 10 μg/ml per well. […] The resulting fluorescence values correspond to cells in the monolayer of a well that are non-viable.
(§1) Next, the media was aspirated, and the monolayer was fixed (killed) by adding 100 μl of 100% ethanol to each well followed by incubation at ambient temperature for 10 minutes. The fluorescense in each well was then read again. The fluorescence values resulting from the second reading correspond to the total number of cells (whether viable or non-viable at the time of the initial fluorescence reading) present in the monolayer of a well.

[2] = system: human cytoplasmic hybrid (“cybrid”) cells; experiment: Assay for mitochondrial permeability transition using DASPMI (ionomycin-induced fluorescence decay); assay type: cell-based; details: DASPMI-loaded cybrid cells, ionomycin induced membrane potential collapse
Source text: B. Assay for Mitochondrial Permeability Transition (MPT) Using 2-,4-Dimethvlaminostyryl-N-Methvlpyridinium (DASPMI).
According to this assay, one may determine the ability of a mitochondria protecting agent of the invention to inhibit the loss of mitochondrial membrane potential that accompanies mitochondrial dysfunction. […] This loss of membrane potential or mitochondrial permeability transition (MPT) can be quantitatively measured using the mitochondria-selective fluorescent probe 2-,4-dimethylaminostyryl-N-methylpyridinium (DASPMI).
Upon introduction into cell cultures, DASPMI accumulates in mitochondria in a manner that is dependent on, and proportional to, mitochondrial membrane potential. If mitochondrial function is disrupted in such a manner as to compromise membrane potential, the fluorescent indicator compound leaks out of the membrane bounded organelle with a concomitant loss of detectable fluorescence. Fluorimetric measurement of the rate of decay of mitochondria associated DASPMI fluorescence provides a quantitative measure of loss of membrane potential, or MPT.
Culture supernatants are then removed and various concentrations of candidate mitochondria protecting agents diluted into HBSS from DMF stocks, or vehicle controls, are added at various concentrations. Mitochondria protecting agents are introduced to cells either before, or at the same time as, introduction of the cells to ionomycin (described below).
Fluorescence of each microculture in the 96-well plate is quantified immediately using a Molecular Devices fmax™ fluorimetric plate reader (Molecular Devices Corp., Sunnyvale, Calif.; excitation wavelength=485 nm; emission wavelength=590 nm) and to fluorescence is recorded. Thereafter, induction of mitochondrial membrane potential collapse is initiated by the addition of ionomycin (Calbiochem, San Diego, Calif.). Ionomycin stock solutions of various concentrations from 0.1-40 μM are prepared in warm Hank's balanced salt solution (HBSS) and diluted for addition to cells to achieve a final concentration of 0.05-20 μM, with final concentrations of 4-10 μM being preferred. Fluorescence decay of DASPMI-loaded, ionomycin induced cells is monitored as a function of time from 0-500 seconds following addition of ionomycin. The maximum negative slope (V-max) is calculated from a subset of the data using analysis software provided by the fluorimetric plate reader manufacturer. In addition, the initial and final signal intensities are determined and the effects of candidate mitochondria protecting agents on the rate of signal decay are quantified.

1685 cells [3] = experiment: Cytotoxic effects of compounds, no thapsigargin (propidium iodide); assay type: cell-based, human
Method: In order to determine the effect of compounds of this invention on the final endpoint of apoptosis (cell death), the following assays were carried out. The cells used were 1685 cells, “1685” being the designation of a cybrid cell line derived from SH-SY5Y and containing mitochondria from a patient having Alzheimer's disease (see U.S. Pat. No. 5,888,498, issued Mar. 30, 1999, hereby incorporated by reference). Cells were plated (3×10^4 cells per well) on 96-well plates 48 hours prior to thapsigargin treatment. Thapsigargin (Calbiochem, La Jolla, Calif.) alone (final concentration, 1 μM), thapsigargin (1 μM) plus agent final concentration, 100 μM), agent alone (100 μM) in growth media, or growth media devoid of both thapsigargin and agent, were added to cells in four separate wells.
Twenty-four hours after thapsigargin +/− agent treatment, propidium iodide (Sigma Chemical Co., St. Louis, Mo.) was added to each well at a final concentration of 10 μg/ml per well. The cells were incubated at ambient temperature for 10 minutes, after which the fluorescence (excitation max=536 nm, 544 nm used for excitation; emission max=617, readings at 612 nm) was determined for each individual well in a fmax™ fluorescence microplate reader (Molecular Devices, Sunnyvale, Calif.). The resulting fluorescence values correspond to cells in the monolayer of a well that are non-viable.
as §1
The results, presented in Table 4 below, are expressed as the percentage of non-viable cells as a proportion of the […] cells (fixed controls).
The ΔCell Viability values resulting from treating cells with agents in this class in the absence of thapsigargin (Table 4, infra) closely parallel the ΔCell Viability values that result when cells are treated with the respective agent and thapsigargin ([…]).

[4] = system: SH-SY5Y neuroblastoma cells; experiment: Ionomycin-induced apoptosis in neuroblastoma cells (membrane blebbing, light microscopy); assay type: cell-based, human; details: 2 mM, simultaneously with 10 μM ionomycin; 6h incubation; ionomycin alone approximately 80%, untreated <5%
Method: SH-SY5Y neuroblastoma cells (1×10^5 cells) were rinsed with one volume 1X PBS, and then treated with 10 μM ionomycin (Calbiochem, San Diego, Cass.) in DMEM supplemented with 10% fetal calf serum (FCS) (Gibco, Life Technologies, Grand Island, N.Y.) for 10 minutes, followed by two washes with DMEM (10% FCS). After 6h incubation at 37° C. in DMEM (10% FCS), cells were visualized by light microscopy (20X magnification). […] When cells were simultaneously treated with ionomycin and 2 mM creatine, the proportion of cells undergoing apoptosis as evidenced by membrane blebbing was reduced to approximately 10%.

[5] = system: cybrid cells (MixCon, 1685 cells); experiment: Ionomycin induced apoptosis in cybrid cells: cytochrome c release (ProteinChip/SELDI); assay type: cell-based, human; details: 100 μM at the same time ionomycin (10 μM) was introduced; FIGURE
Source text: In another aspect of the apoptosis assays, quantification of the mitochondrial protein cytochrome c that has leaked out of mitochondria in apoptotic cells may provide an apoptosis indicator that can be readily determined (Liu et al., Cell 86:147-157, 1996). Such quantification of cytochrome c may be performed spectrophotometrically, immunochemically or by other well established methods for detecting the presence of a specific protein. Release of cytochrome c from mitochondria in cells challenged with apoptotic stimuli (e.g., ionomycin, a well known calcium ionophore) can be followed by a variety of immunological methods. Matrix-assisted laser desorption ionization time of flight mass (MALDI-TOF) spectrometry coupled with affinity capture is particularly suitable for such analysis since apo-cytochrome c and holo cytochrome c can be distinguished on the basis of their unique molecular weights. […] The molecular weight of the protein is determined by its time of flight to the detector of the SELDI mass spectrometer. […]
Cytochrome c antibody was covalently bound to solid support chips containing a pre-activated surface (ProteinChip, Ciphergen, Palo Alto, Calif.). […] After removal of the Tris-saline buffer, the chip was rinsed with 1× PBS and was ready for capture of the antigen. […]

SMILES	Δ Cell Viability (1685 cells [1])	% Non-Viable Cells with Thapsigargin and with Cmpd. (1685 cells [1])	other results
CN(Cc1cc(C(C)(C)C)c(O)c(C(C)(C)C)c1)NC(=N)N [Compound (4)]	2.1%	–	cytotoxicity at 100 µM (1685 cells [1]): 43.8%; pIC50 [2]: 5.00
COc1cc(C(=O)O)ccc1NC(=N)N [(12)]	1.8%	37.5%	–
N=C(N)NC(=N)Nc1ccc(C(=O)O)cc1 [(34)]	2.9%	42.4%	–
N=C(N)Nc1cc(F)cc(F)c1 [(15)]	–	42.2%	–
CCCCCCCCc1ccc(O)c(NC(=N)N)c1 [Compound (6)]	–	–	Δ Cell Viability (1685 cells [3]; no thapsigargin, [% Non-Viable Cells (without Cmpd)] − [% Non-Viable Cells (with Cmpd)]): −109.0%; % Non-Viable Cells with Cmpd. (1685 cells [3]; no thapsigargin, agent alone 100 μM, 24 hours): 125.2%; cytotoxicity at 100 µM (1685 cells [1]): 122%
CC(C)(C)c1cc(CNNC(=N)N)cc(C(C)(C)C)c1O [Compound (1)]	3.2%	–	ΔCell Viability (1685 cells [1]; (+thapsigargin, −compound)—(+thapsigargin, +compound), approximate values): about 3.5; cytotoxicity at 100 µM (1685 cells [1]): 38.3%
N=C(N)NCCc1ccc(O)c(O)c1 [(28)]	–	52.3%	–
N=C(N)Nc1cc(C(F)(F)F)cc(C(F)(F)F)c1 [(14)]	–	47.9%	–
CCCCCCOc1ccc(NC(=N)N)cc1 [(16)]	–	121.2%	Δ Cell Viability (1685 cells [3]): −106.7%
N=C(N)Nc1ccc(C(=O)O)cc1 [4-Guanidinobenzoic Acid]	–	–	pIC50 [2]: 3.00
N=C(N)Nc1ccc(O)c(C(=O)O)c1 [(23)]	0.6%	49.8%	–
N=C(N)Nc1ccc(F)cc1 [(17)]	–	56.9%	Δ Cell Viability (1685 cells [3]): −23.6%
COc1cc(NC(=N)N)cc(OC)c1OC [(3)]	–	46.7%	–
COc1cc(NC(=N)N)c(Cl)cc1C(=O)O [(13)]	–	52.8%	Δ Cell Viability (1685 cells [3]): −22.2%
N=C(N)Nc1ccccc1CO [(19)]	–	44.3%	–
CN(CC(=O)O)C(=N)N [Creatine]	–	–	pIC50 [2]: 2.70; proportion of cells undergoing apoptosis as evidenced by membrane blebbing [4]: approximately 10%
NC1=NCCN1CC(=O)O [Cyclocreatine]	–	–	pIC50 [2]: 2.52
N=C(N)NC(=N)Nc1ccccc1 [(1 1)]	–	–	cytochrome c release [5]: attenuation of cytochrome release
CCCCCCCCc1ccc(NC(=N)N)cc1 [Compound (31)]	–	100.0%	Δ Cell Viability (1685 cells [3]): −83.5%
N=C(N)Nc1ccc(N2CCOCC2)cc1 [(27)]	7.9%	42.5%	–
